Patent publication US11555041B2, “Bridged bicyclic inhibitors of menin-MLL and methods of use” (Kura Oncology, Inc., priority 2016, dated 2023)
pIC50: −log10 of the molar value. Read-outs that look alike come from different tables or passages of the source.

Tests used:
[1] = tested on: MV4;11 (human leukemia) tumor; assay: Efficacy study in mouse xenograft tumor model; type: in vivo; conditions: female nude mice, subcutaneous MV4;11, oral gavage 150 mg/kg bid
Method: Immunocompromised 8-10 week-old female nude (nu/nu) mice were used for in vivo efficacy studies in accordance with IACUC guidelines. Human MV4;11 leukemia cells available from ATCC were implanted subcutaneously into female nude mice (5×10^6 cells/mouse). When the tumor reached a size of approximately 150 to 250 mm^3, the tumor-bearing mice were randomly assigned to a vehicle control or a compound treatment group (8 mice per group). Mice in the treatment group were administered a compound of the present disclosure by oral gavage (150 mg/kg, bid). Subcutaneous tumor volume and mouse body weight were measured twice weekly. Tumor volumes were calculated by measuring two perpendicular diameters with calipers (V=(length×width^2)/2). […] As used in the Examples and Figures herein, Compound B refers to Compound 82 in Table 1.

[2] = biological target: T1, menin-MLL interaction (Menin MLL 4-43) (Homo sapiens, UniProt O00255); assay: Fluorescence polarization (FP) competition assay; type: binding
T1 sequence (O00255 1-610): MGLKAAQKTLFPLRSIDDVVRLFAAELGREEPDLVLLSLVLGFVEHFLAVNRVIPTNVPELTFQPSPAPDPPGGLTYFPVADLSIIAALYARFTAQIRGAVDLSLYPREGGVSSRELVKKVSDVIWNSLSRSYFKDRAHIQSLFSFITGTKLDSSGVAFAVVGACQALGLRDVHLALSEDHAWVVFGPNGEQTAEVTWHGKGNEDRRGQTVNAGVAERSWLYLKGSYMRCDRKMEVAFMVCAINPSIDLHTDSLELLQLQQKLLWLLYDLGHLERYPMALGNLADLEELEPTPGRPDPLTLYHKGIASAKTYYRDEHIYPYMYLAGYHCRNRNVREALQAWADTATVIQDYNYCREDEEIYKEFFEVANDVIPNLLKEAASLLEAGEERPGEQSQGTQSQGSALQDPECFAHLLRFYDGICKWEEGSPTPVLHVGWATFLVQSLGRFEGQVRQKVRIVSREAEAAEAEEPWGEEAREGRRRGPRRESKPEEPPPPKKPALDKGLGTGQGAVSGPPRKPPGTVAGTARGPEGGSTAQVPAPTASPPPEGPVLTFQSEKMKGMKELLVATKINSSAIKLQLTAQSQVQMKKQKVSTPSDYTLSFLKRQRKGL

[3] = tested on: MV4;11 cells; assay: MTT cell proliferation assay; type: cell-based; conditions: Homo sapiens
Method: The ability of a compound of the present disclosure to inhibit the growth of cells was tested in MLL leukemia cell lines (e.g., MV4;11) using the MTT cell proliferation assay (ATCC® 30-1010K). […] Cells were plated at about 1×10^5 cells per well in a 96-well plate. A compound of the present disclosure was added at a concentration up to about 2 μM with seven, 2-fold serial dilutions for each compound. Cells were incubated at 37° C. for 72 hours, then cells in the control wells were counted. Media was changed to restore viable cell numbers to the original concentration, and compounds were re-supplied. Proliferation was measured 96 hours later using MTT reagents, as per kit instructions. […] As used in the Examples and Figures herein, Compound A refers to Compound 3 in Table 1.

[4] = fluorescence polarization assay, read-out: Menin MLL 4-43 IC50
[5] = measured in accordance with Example 8, read-out: IC50 value (ability of the compound to disrupt the menin-MLL interaction)

pIC50 [2, 4] | Compound | also measured
> 7.30 | CNc1nc(NC2CCN(Cc3ccc4c(cc(C#N)n4CC45CC(NC(C)=O)(C4)C5)c3C)CC2)c2cc(CC(F)(F)F)sc2n1 [Compound 82] | MV4;11 tumor growth (tumor volume) relative to vehicle control [1]: inhibited tumor growth and induced tumor regression; pIC50 [2, 5]: ≥ 7.30
6.60 to 7.30 | Cc1c(CN2CCC(Nc3ncnc4sc(CC(F)(F)F)cc34)CC2)ccc2c1cc(C#N)n2CC12CC(NC(=O)CNC3CC3)(C1)C2 [Compound 42] | –
6.00 to 6.60 | C=CC(=O)NC12CC(CCn3c(C#N)cc4c(C)c(CN5CCC(Nc6ncnc7sc(CC(F)(F)F)cc67)CC5)ccc43)(C1)C2 [Compound 14] | –
< 6.00 | Cc1c(CN2CCC(Nc3ncnc4sc(CC(F)(F)F)cc34)CC2)ccc2c1cc(C#N)n2CC12CC(N(C3CC3)C3CC3)(C1)C2 [Compound 49] | –
> 7.30 | Cc1c(CN2CCC(Nc3ncnc4sc(CC(F)(F)F)cc34)CC2)ccc2c1cc(C#N)n2CC12CC(NC(=O)C(C)N)(C1)C2 (stereo not drawn) [Compound 64] | –
> 7.30 | Cc1c(CN2CCC(Nc3ncnc4sc(CC(F)(F)F)cc34)CC2)ccc2c1cc(C#N)n2CC12CC(NC(=O)CN3CCCC3)(C1)C2 [Compound 57] | –
6.60 to 7.30 | Cc1c(CN2CCC(Nc3ncnc4sc(CC(F)(F)F)cc34)CC2)ccc2c1cc(C#N)n2CC12CC(NC(=O)C(C)C)(C1)C2 [Compound 8] | –
6.60 to 7.30 | CNC(=O)C12CC(Cn3c(C#N)cc4c(C)c(CN5CCC(Nc6ncnc7sc(CC(F)(F)F)cc67)CC5)ccc43)(C1)C2 [Compound 18] | –
> 7.30 | Cc1nc(NC2CCN(Cc3ccc4c(cc(C#N)n4CC45CC(NC=O)(C4)C5)c3C)CC2)c2cc(CC(F)(F)F)sc2n1 [Compound 83] | –
6.60 to 7.30 | C=CC(=O)NC12CC(Cn3c(C#N)cc4c(C)c(CN5CCC(Nc6ncnc7sc(CC(F)(F)F)cc67)CC5)ccc43)(C1)C2 [Compound 1] | –
> 7.30 | Cc1c(CN2CCC(Nc3ncnc4sc(CC(F)(F)F)cc34)CC2)ccc2c1cc(C#N)n2CC12CC(NC(=O)C(N)C(C)C)(C1)C2 (stereo not drawn) [Compound 62] | –
> 7.30 | CC(=O)NC12CC(Cn3c(C#N)cc4c(C)c(CN5CCC(Nc6nc(C)nc7sc(CC(F)(F)F)cc67)CC5)ccc43)(C1)C2 [Compound 84] | –
6.60 to 7.30 | CCC(=O)NC12CC(Cn3c(C#N)cc4c(C)c(CN5CCC(Nc6ncnc7sc(CC(F)(F)F)cc67)CC5)ccc43)(C1)C2 [Compound 3] | GI50 [3]: 40 nM; MV4;11 tumor growth (tumor volume) relative to vehicle control [1]: inhibited tumor growth and induced tumor regression; pIC50 [2, 5]: ≥ 7.30
